Measured values: US20220401592A1, “LOW MOLECULAR WEIGHT AND POLYAMIDOAMINE (PAMAM) DENDRIMER BASED PSMA-SPECIFIC DUAL CONTRAST AGENTS FOR OPTICAL AND PHOTOACOUSTIC IMAGING AND THERANOSTIC AGENTS FOR TREATING PROSTATE CANCER” (priority 2021, published 2022)

Columns and labels:
[1] = target: T1, PSMA (Homo sapiens, UniProt Q04609); conditions: cited from earlier work
Target sequence in this assay (Q04609 whole entry, species assumed): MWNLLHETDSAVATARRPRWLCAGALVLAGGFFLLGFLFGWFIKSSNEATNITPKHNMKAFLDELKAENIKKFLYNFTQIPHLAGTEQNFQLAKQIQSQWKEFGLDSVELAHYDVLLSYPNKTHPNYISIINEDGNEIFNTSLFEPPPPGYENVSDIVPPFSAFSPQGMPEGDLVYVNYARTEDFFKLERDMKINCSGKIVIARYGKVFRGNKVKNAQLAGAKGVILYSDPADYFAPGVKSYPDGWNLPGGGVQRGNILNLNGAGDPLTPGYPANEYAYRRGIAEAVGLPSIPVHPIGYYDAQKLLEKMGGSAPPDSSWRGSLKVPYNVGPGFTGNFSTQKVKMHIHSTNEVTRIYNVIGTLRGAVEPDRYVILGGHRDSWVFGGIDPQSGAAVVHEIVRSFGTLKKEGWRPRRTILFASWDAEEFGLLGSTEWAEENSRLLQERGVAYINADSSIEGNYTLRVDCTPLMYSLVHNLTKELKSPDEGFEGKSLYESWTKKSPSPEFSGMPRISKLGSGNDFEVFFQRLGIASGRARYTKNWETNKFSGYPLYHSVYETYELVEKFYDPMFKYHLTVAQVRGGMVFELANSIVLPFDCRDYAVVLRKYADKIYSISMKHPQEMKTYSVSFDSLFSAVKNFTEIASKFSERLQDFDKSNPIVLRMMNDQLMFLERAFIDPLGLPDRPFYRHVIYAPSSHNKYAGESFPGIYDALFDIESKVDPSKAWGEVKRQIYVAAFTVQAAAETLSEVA

[2] = PA tubing phantom experiment; conditions: for RPAmax, ratio of maximum PA intensity in NIR range (with respect to I at 770 nm): 700-900 nm in steps of 10 nm; for RPAmax, ratio of maximum PA intensity in NIR range (with respect to I at 770 nm) / RPA780, ratio of photoacoustic intensity at 780 nm (to conjugate I): same amount of Cy7.5 dye; for PB: abbreviation not defined in the footnote
Description: (§1) All conjugates were formulated into 600 μL sample containing 2.88-nmol Cy7.5 dye. Then, each sample was equally split into three for spectrophotometric, spectrofluorometric, and PA tests, respectively. To obtain the excitation wavelength for fluorescence evaluation as well as estimating the shape of PA spectra, optical absorbance of all conjugates was first tested on a UIV-Vis spectrophotometer. A range from 650 nm to 950 nm (slightly wider than the tunable stable wavelength range on a Nd:YAG OPO laser, i.e., 700 nm to 900 nm) in step of 1 nm was selected. […] Due to the emission limit on the spectrofluorometer (up to 850 nm), the excitation for spectrofluorometry was set at 715 nm, and the emission was set from 750 nm to 850 nm in step of 1 nm. […] Specifically, to avoid the interference of photobleaching wavelengths from 700 nm to 900 nm in step of 10 nm were tested in PA tubing phantom experiment.

[3] = Spectrofluorometric test (fluorescence quenching) of conjugates; conditions: excitation 715 nm, emission 750-850 nm; samples with the same amount of Cy7.5 dye; normalized to conjugate I
Description: as §1

[4] = target: T1, PSMA; assay: In vitro binding assay of conjugates with PSMA+ PC3 PIP cells (vs PSMA- PC3 flu cells); parameters: expressed in transfected cells; host or cells: PSMA+ PC3 PIP (human prostate cancer PC3 subline); PSMA- PC3 flu as negative control; conditions: for Kd: PSMA+ PC3 PIP cells, fluorescence intensity vs concentration, read-out: Kd, dissociation constant
Target sequence in this assay (Q04609 whole entry): as the sequence (Q04609 whole entry, species assumed) above

[5] = tested on: PSMA-PC3 flu tumors; assay: In vivo photoacoustic imaging, PSMA-PC3 flu tumors; parameters: species or system NOD-SCID mice
Source text: To evaluate potential application of the conjugates in photoacoustic imaging, mice used in optical imaging (described in optical imaging section) were imaged using the Nd:YAG OPO laser and Verasonics Vantage 256 ultrasound research platform. […] Under the assumption that different tissue types yield linearly independent PA signal, the two-dimensional (axial and lateral) PA images of the exogeneous imaging agent (conjugate VI) were decomposed from the acquired three-dimensional photoacoustic volume (axial, lateral, and spectral) using non-negative least squares models. The same speed of sound was considered in the beam formation of US and PA imaging. Thus, the two imaging modalities were co-registered by nature. On top of that, image fusion of the two was achieved by using Daubechies 2 wavelet in wavelet transform.
To record background for PA signal mice were imaged before administration of […] and 5, 24, 48, and 72 h after injection (ai). The average PA intensities within the region-of-interest (ROI) of PSMA^+ PC3 normalized with respect to the pre-administration baseline PIP were 25.1±11.0, 30.2±21.1, and 21.8±7.4 at 24, 48 and 72 h ai, respectively. The average PA image intensities within the ROI of PSMA-PC3 flu were 4.2±4.3, 5.9±2.5, 3.8±1.3 (a.u.) at the same time points. […] The normalized PA image intensities of PSMA^+ PC3 PIP tumors were 1.1±0.9, 3.8±4.1, and 1.6±1.4 (a.u.) at 24, 48 and 72 h ai, respectively, and of PSMA-PC3 flu tumors were 2.0±0.9, 3.4±2.4, and 0.9±0.7 (a.u.), respectively.

[6] = tested on: PSMA+ PC3 PIP and PSMA-PC3 flu xenografts; assay: NIR optical imaging, in vivo and ex vivo, of tumor-bearing mice; parameters: species or system NOD-SCID mice; conditions: for preferential accumulation in PSMA+ PC3 PIP tumors vs PSMA-PC3 flu tumors (optical imaging): whole-body NIR imaging, 800 nm channel
[7] = tested on: PSMA+ PC3 PIP tumors; assay: In vivo photoacoustic imaging, PSMA+ PC3 PIP tumors; parameters: species or system NOD-SCID mice
[8] = Spectrophotometric test (UV-Vis optical absorbance) of conjugates
Description: as §1

Compound: NCCCCC(NC(=O)NC(CCC(=O)O)C(=O)O)C(=O)O (stereo not drawn) [KEU, Lys-Glu-urea]
- affinity to PSMA [1]: picomolar

Compound: G4(NH2)20(Cy7.5)2(SA-KEU)10(Bdiol)32 [Conjugate II]
- RPAmax, ratio of maximum PA intensity in NIR range (with respect to I at 770 nm) [2]: 30.3%
- RPA780, ratio of photoacoustic intensity at 780 nm (to conjugate I) [2]: 30.8%
- PB [2]: 0.043 %/sec
- QR (quenching rate) [3]: 76.4%
- Kd [4]: 680 nM

Compound: G4(NH2)13(Cy7.5)6(Bdiol)45 [Conjugate VI]
- average PA image intensity within ROI of PSMA-PC3 flu ([5]; 24 h after injection): 2.0±0.9 a.u.
- average PA image intensity within ROI of PSMA-PC3 flu ([5]; 48 h after injection): 3.4±2.4 a.u.
- average PA image intensity within ROI of PSMA-PC3 flu ([5]; 72 h after injection): 0.9±0.7 a.u.
- RPAmax, ratio of maximum PA intensity in NIR range (with respect to I at 770 nm) [2]: 44.6%
- RPA780, ratio of photoacoustic intensity at 780 nm (to conjugate I) [2]: 45.4%
- preferential accumulation in PSMA+ PC3 PIP tumors vs PSMA-PC3 flu tumors (optical imaging) [6]: did not show preferential uptake
- QR (quenching rate) [3]: 26.6%
- average PA intensity within ROI of PSMA+ PC3 PIP, normalized to pre-injection baseline ([7]; 24 h after injection): 1.1±0.9 a.u.
- average PA intensity within ROI of PSMA+ PC3 PIP, normalized to pre-injection baseline ([7]; 48 h after injection): 3.8±4.1 a.u.
- average PA intensity within ROI of PSMA+ PC3 PIP, normalized to pre-injection baseline ([7]; 72 h after injection): 1.6±1.4 a.u.

Compound: G4(Cy7.5)s(SA-KEU)12(Bdiol)52 [Conjugate V]
- RPAmax, ratio of maximum PA intensity in NIR range (with respect to I at 770 nm) [2]: 111.1%
- RPA780, ratio of photoacoustic intensity at 780 nm (to conjugate I) [2]: 97.5%
- PB [2]: 0.057 %/sec
- ratio of PA intensity to I in 790-900 nm range ([2]; maximum ratio, at 860 nm): ≤ 1257.44%
- QR (quenching rate) [3]: 1.3%
- Kd [4]: 78 nM
- absorbance relative to I below 750 nm [8]: up to 1.8 times

Compound: G4(Cy7.5)6(SA-KEU)9(Bdiol)53 [Conjugate IV]
- average PA image intensity within ROI of PSMA-PC3 flu ([5]; 24 h after injection): 4.2±4.3 a.u.
- average PA image intensity within ROI of PSMA-PC3 flu ([5]; 48 h after injection): 5.9±2.5 a.u.
- average PA image intensity within ROI of PSMA-PC3 flu ([5]; 72 h after injection): 3.8±1.3 a.u.
- RPAmax, ratio of maximum PA intensity in NIR range (with respect to I at 770 nm) [2]: 48.1%
- RPA780, ratio of photoacoustic intensity at 780 nm (to conjugate I) [2]: 49.0%
- PB [2]: 0.037 %/sec
- ex vivo fluorescence intensity PSMA+ PC3 PIP/PSMA-PC3 flu ratio ([6]; dissected tissues 72 h after injection of 100 μg (3.72 nmol)): 6.2
- preferential accumulation in PSMA+ PC3 PIP tumors vs PSMA-PC3 flu tumors (optical imaging) [6]: highly specific accumulation
- QR (quenching rate) [3]: 4.4%
- uptake by PSMA+ PC3 PIP cells compared to PSMA-PC3 flu cells [4]: significantly higher uptake
- Kd [4]: 410 nM
- specific uptake by PSMA+ PC3 PIP in presence of an excess of ZJ-43 ([4]; excess of ZJ-43 (PSMA antagonist)): inhibited
- internalization in PSMA+ PC3 PIP cells compared to PSMA-PC3 flu cells ([4]; microscopic evaluation): significantly higher internalization
- average PA intensity within ROI of PSMA+ PC3 PIP, normalized to pre-injection baseline ([7]; 24 h after injection): 25.1±11.0 a.u.
- average PA intensity within ROI of PSMA+ PC3 PIP, normalized to pre-injection baseline ([7]; 48 h after injection): 30.2±21.1 a.u.
- average PA intensity within ROI of PSMA+ PC3 PIP, normalized to pre-injection baseline ([7]; 72 h after injection): 21.8±7.4 a.u.

Compound: G4(NH2)(Cy7.5)4(SA-KEU)9(Bdiol)30 [Conjugate III]
- RPAmax, ratio of maximum PA intensity in NIR range (with respect to I at 770 nm) [2]: 20.6%
- RPA780, ratio of photoacoustic intensity at 780 nm (to conjugate I) [2]: 20.9%
- PB [2]: 0.049 %/sec
- QR (quenching rate) [3]: 174.9%
- Kd [4]: 270 nM

Compound: CN1/C(=C/C=C2C=C(/C=C/C3=[N+](CCCCCC(=O)NCCCC[C@H](NC(=O)CCCCCCC(=O)NCCCC[C@H](NC(=O)N[C@@H](CCC(=O)O)C(=O)O)C(=O)O)C(=O)O)c4ccc5c(S(=O)(=O)O)cc(S(=O)(=O)O)cc5c4C3(C)C)CCC/2)C(C)(C)c2c1ccc1c(S(=O)(=O)[O-])cc(S(=O)(=O)O)cc21 [Conjugate I]
- average PA image intensity within ROI of PSMA-PC3 flu ([5]; 24 h after injection): 1.9±1.4 a.u.
- average PA image intensity within ROI of PSMA-PC3 flu ([5]; 48 h after injection): 19±0.9 a.u.
- average PA image intensity within ROI of PSMA-PC3 flu ([5]; 72 h after injection): 2.0±1.1 a.u.
- preferential accumulation in PSMA+ PC3 PIP tumors vs PSMA-PC3 flu tumors (optical imaging) [6]: preferential accumulation
- Kd [4]: 780 nM
- average PA intensity within ROI of PSMA+ PC3 PIP, normalized to pre-injection baseline ([7]; 24 h after injection): 21.6±16.8 a.u.
- average PA intensity within ROI of PSMA+ PC3 PIP, normalized to pre-injection baseline ([7]; 48 h after injection): 12.7±5.2 a.u.
- average PA intensity within ROI of PSMA+ PC3 PIP, normalized to pre-injection baseline ([7]; 72 h after injection): 10.0±4.8 a.u.
